Test results published in patent US20120115877A1, “Facially Amphiphilic Compounds, Compositions, And Uses Thereof In Treating Cancer” (POLYMEDIX, INC., priority 2010, published 2012).

Columns and labels:
Type in all cases: cell-based, human
[1] = test system: OVCAR-8; experiment: NCI-60 screen, Ovarian Cancer; details: 10 μM
Experimental: (§1) Several compounds were tested at single concentrations (10 μM) against 59 different human tumor cell lines, representing leukemia, melanoma and cancers of the lung, colon, brain, ovary, breast, prostate, and kidney (see, Table 3). The human tumor cell lines of the cancer screening panel were grown in RPMI 1640 medium containing 5% fetal bovine serum and 2 mM L-glutamine. For a typical screening experiment, cells were inoculated into 96 well microtiter plates in 100 μL at plating densities ranging from 5,000 to 40,000 cells/well depending on the doubling time of individual cell lines. After cell inoculation, the microtiter plates were incubated at 37° C., 5% CO2, 95% air and 100% relative humidity for 24 hours prior to addition of the compounds.
(§2) After 24 hours, two plates of each cell line were fixed in situ with TCA, to represent a measurement of the cell population for each cell line at the time of drug addition (Tz). Compounds were solubilized in dimethyl sulfoxide at 400-fold the desired final maximum test concentration and stored frozen prior to use. At the time of drug addition, an aliquot of frozen concentrate was thawed and diluted to twice the desired final maximum test concentration with complete medium containing 50 μg/ml gentamicin. Additional four, 10-fold or ½ log serial dilutions were made to provide a total of five compound concentrations plus control. Aliquots of 100 μl of these different drug dilutions were added to the appropriate microtiter wells already containing 100 μl of medium, resulting in the required final compound concentrations.
(§3) Following drug addition, the plates were incubated for an additional 48 hours at 37° C., 5% CO2, 95% air, and 100% relative humidity. For adherent cells, the assay was terminated by the addition of cold TCA. Cells were fixed in situ by the gentle addition of 50 μl of cold 50% (w/v) TCA (final concentration, 10% TCA) and incubated for 60 minutes at 4° C. The supernatant was discarded, and the plates were washed five times with tap water and air dried. Sulforhodamine B (SRB) solution (100 μl) at 0.4% (w/v) in 1% acetic acid was added to each well, and plates were incubated for 10 minutes at room temperature. After staining, unbound dye was removed by washing five times with 1% acetic acid and the plates were air dried. Bound stain was subsequently solubilized with 10 mM trizma base, and the absorbance was read on an automated plate reader at a wavelength of 515 nm. For suspension cells, the methodology was the same except that the assay was terminated by fixing settled cells at the bottom of the wells by gently adding 50 μl of 80% TCA (final concentration, 16% TCA). Using the seven absorbance measurements (time zero, (Tz), control growth, (C), and test growth in the presence of drug at the five concentration levels (Ti)), the percentage growth was calculated at each of the compound concentrations levels. Percentage growth inhibition was calculated as:
(§4) [(Ti−Tz)/(C−Tz)]×100 for concentrations for which Ti>/=Tz
(§5) [(Ti−Tz)/Tz]×100 for concentrations for which Ti<Tz.
(§6) Three dose response parameters were calculated for each compound. Growth inhibition of 50% (GI50) was calculated from [(Ti−Tz)/(C−Tz)]×100=50, which is the compound concentration resulting in a 50% reduction in the net protein increase (as measured by SRB staining) in control cells during the compound incubation. The compound concentration resulting in total growth inhibition (TGI) was calculated from Ti=Tz. The LC50 (concentration of compound resulting in a 50% reduction in the measured protein at the end of the compound treatment as compared to that at the beginning) indicating a net loss of cells following treatment was calculated from [(Ti−Tz)/Tz]×100=−50. Values were calculated for each of these three parameters if the level of activity was reached; however, if the effect was not reached or was exceeded, the value for that parameter was expressed as greater or less than the maximum or minimum concentration tested.

[2] = test system: OVCAR-4; experiment: NCI-60 screen, Ovarian Cancer; details: 10 μM
Experimental: as §1, §2, §3, §4, §5, §6

[3] = test system: IGROV1; experiment: NCI-60 screen, Ovarian Cancer; details: 10 μM
Experimental: as §1, §2, §3, §4, §5, §6

[4] = test system: SK-OV-3; experiment: NCI-60 screen, Ovarian Cancer; details: 10 μM
Experimental: as §1, §2, §3, §4, §5, §6

[5] = test system: OVCAR-5; experiment: NCI-60 screen, Ovarian Cancer; details: 10 μM
Experimental: as §1, §2, §3, §4, §5, §6

[6] = test system: K-562; experiment: NCI-60 screen, Leukemia; details: 10 μM
Experimental: as §1, §2, §3, §4, §5, §6

[7] = test system: CCRF-CEM; experiment: NCI-60 screen, Leukemia; details: 10 μM
Experimental: as §1, §2, §3, §4, §5, §6

[8] = test system: MOLT-4; experiment: NCI-60 screen, Leukemia; details: 10 μM
Experimental: as §1, §2, §3, §4, §5, §6

[9] = test system: HL-60(TB); experiment: NCI-60 screen, Leukemia; details: 10 μM
Experimental: as §1, §2, §3, §4, §5, §6

[10] = test system: SR; experiment: NCI-60 screen, Leukemia; details: 10 μM
Experimental: as §1, §2, §3, §4, §5, §6

[11] = test system: NCI-H226; experiment: NCI-60 screen, Non-Small Cell Lung Cancer; details: 10 μM
Experimental: as §1, §2, §3, §4, §5, §6

[12] = test system: A549/ATCC; experiment: NCI-60 screen, Non-Small Cell Lung Cancer; details: 10 μM
Experimental: as §1, §2, §3, §4, §5, §6

[13] = test system: NCI-H522; experiment: NCI-60 screen, Non-Small Cell Lung Cancer; details: 10 μM
Experimental: as §1, §2, §3, §4, §5, §6

[14] = test system: NCI-H460; experiment: NCI-60 screen, Non-Small Cell Lung Cancer; details: 10 μM
Experimental: as §1, §2, §3, §4, §5, §6

[15] = test system: EKVX; experiment: NCI-60 screen, Non-Small Cell Lung Cancer; details: 10 μM
Experimental: as §1, §2, §3, §4, §5, §6

[16] = test system: NCI-H23; experiment: NCI-60 screen, Non-Small Cell Lung Cancer; details: 10 μM
Experimental: as §1, §2, §3, §4, §5, §6

[17] = test system: HOP-92; experiment: NCI-60 screen, Non-Small Cell Lung Cancer; details: 10 μM
Experimental: as §1, §2, §3, §4, §5, §6

[18] = test system: NCI-H322M; experiment: NCI-60 screen, Non-Small Cell Lung Cancer; details: 10 μM
Experimental: as §1, §2, §3, §4, §5, §6

[19] = test system: HOP-62; experiment: NCI-60 screen, Non-Small Cell Lung Cancer; details: 10 μM
Experimental: as §1, §2, §3, §4, §5, §6

[20] = test system: T-47D; experiment: NCI-60 screen, Breast Cancer; details: 10 μM
Experimental: as §1, §2, §3, §4, §5, §6

[21] = test system: BT-549; experiment: NCI-60 screen, Breast Cancer; details: 10 μM
Experimental: as §1, §2, §3, §4, §5, §6

[22] = test system: MDA-MB-468; experiment: NCI-60 screen, Breast Cancer; details: 10 μM
Experimental: as §1, §2, §3, §4, §5, §6

[23] = test system: MCF7; experiment: NCI-60 screen, Breast Cancer; details: 10 μM
Experimental: as §1, §2, §3, §4, §5, §6

[24] = test system: MDA-MB-31/ATCC; experiment: NCI-60 screen, Breast Cancer; details: 10 μM, MDA-MB-231/ATCC
Experimental: as §1, §2, §3, §4, §5, §6

[25] = test system: DU-145; experiment: NCI-60 screen, Prostate Cancer; details: 10 μM
Experimental: as §1, §2, §3, §4, §5, §6

[26] = test system: PC-3; experiment: NCI-60 screen, Prostate Cancer; details: 10 μM
Experimental: as §1, §2, §3, §4, §5, §6

SMILES | Percent Growth [1] [%] | Percent Growth [2] [%] | Percent Growth [3] [%] | Percent Growth [4] [%] | Percent Growth [5] [%] | Percent Growth [6] [%] | Percent Growth [7] [%] | Percent Growth [8] [%] | Percent Growth [9] [%] | Percent Growth [10] [%] | Percent Growth [11] [%] | Percent Growth [13] [%] | Percent Growth [14] [%] | Percent Growth [15] [%] | Percent Growth [16] [%] | Percent Growth [17] [%] | Percent Growth [18] [%] | Percent Growth [19] [%] | Percent Growth [20] [%] | Percent Growth [21] [%] | also measured
N=C(N)NCCCCC(=O)Nc1cc(C(F)(F)F)cc(NC(=O)Nc2ccc(NC(=O)Nc3cc(C(F)(F)F)cc(NC(=O)CCCCNC(=N)N)c3OC3CCNC3)cc2)c1OC1CCNC1 (stereo not shown) [Compound B] | 66.59 | 23.18 | 82.4 | 59.3 | 77.33 | 38.56 | 60.57 | 63.33 | 58.59 | 77.31 | 51.21 | −11.87 | 50.72 | 61.92 | 77.57 | 81.51 | 80.76 | 23.47 | 3.786 | 89.61 | Percent Growth [12]: 49.78%; Percent Growth [22]: 43.02%; Percent Growth [23]: 44.41%; Percent Growth [24]: 73.02%; Percent Growth [25]: 70.36%; Percent Growth [26]: 59.59%
NCCSc1cc(SCCN)c(C(F)(F)F)cc1NC(=O)c1cc(C(=O)Nc2cc(C(F)(F)F)c(SCCN)cc2SCCN)ncn1 [Compound F] | 14.34 | −1.474 | 4.7 | 15.33 | 59.37 | 96.34 | 99.09 | 82.85 | 82.57 | 51.7 | 66.85 | −2.5 | 47.73 | 75.72 | 60.86 | −24.05 | 55.48 | 29.35 | 34.11 | 101.8 | Percent Growth [12]: 15.81%; Percent Growth [22]: −78.28%; Percent Growth [23]: −59.97%; Percent Growth [24]: 18.87%; Percent Growth [25]: 51.97%; Percent Growth [26]: 46.61%
NCCCc1cccc(-c2ccc3oc4ccc(-c5cccc(CCCN)c5)cc4c3c2)c1 [Compound G] | 33.74 | 54.91 | 42.2 | 94.45 | 64.48 | 2.899 | 9.165 | −6.401 | 46.37 | −19.6 | 104.4 | 69.45 | 23.91 | 81.69 | 99.38 | 61.6 | 108.3 | 72.69 | 80.44 | 101.5 | Percent Growth [22]: −3.51%; Percent Growth [23]: −44.29%; Percent Growth [24]: 37.19%; Percent Growth [25]: −23.65%; Percent Growth [26]: 54.99%
c1cc(-c2ccc3sc4ccc(-c5ccnc(N6CCNCC6)c5)cc4c3c2)cc(N2CCNCC2)n1 [Compound E] | −61.04 | −87.74 | −43.57 | 51.66 | −46.66 | −70.89 | −64.03 | −75.28 | −24.59 | −60.7 | 39.89 | −93.93 | −78.46 | 22.56 | 52.19 | 32.76 | −53.02 | −80.18 | −12.27 | 98.88 | Percent Growth [12]: −77.24%; Percent Growth [22]: −82.28%; Percent Growth [23]: −89.85%; Percent Growth [24]: −41.26%; Percent Growth [25]: −97.96%; Percent Growth [26]: −85.11%
